Source: article PMC11678425, “(-)-Syringaresinol Exerts an Antidepressant-like Activity in Mice by Noncompetitive Inhibition of the Serotonin Transporter” (Pharmaceuticals, 2024)

Legend:
SERT Y107C/C109A = experiment: Cysteine accessibility, extracellular pathway: MTSET reactivity with Y107C/C109A; assay type: cell-based; conditions: 10 μM ligand, compared with the control (MTSET alone)
hSERT I172F = target: T1, hSERT I172F (Homo sapiens, UniProt P31645, I172F); experiment: APP^+ uptake, hSERT I172F; assay type: cell-based; conditions: S1 site mutant, read-out: SYR IC50 for Transport
T1 construct: forward and reverse primers were used to amplify a full-length hSERT; expressed in transfected cells; host or cells: HeLa
T1 sequence (P31645 whole entry I172F): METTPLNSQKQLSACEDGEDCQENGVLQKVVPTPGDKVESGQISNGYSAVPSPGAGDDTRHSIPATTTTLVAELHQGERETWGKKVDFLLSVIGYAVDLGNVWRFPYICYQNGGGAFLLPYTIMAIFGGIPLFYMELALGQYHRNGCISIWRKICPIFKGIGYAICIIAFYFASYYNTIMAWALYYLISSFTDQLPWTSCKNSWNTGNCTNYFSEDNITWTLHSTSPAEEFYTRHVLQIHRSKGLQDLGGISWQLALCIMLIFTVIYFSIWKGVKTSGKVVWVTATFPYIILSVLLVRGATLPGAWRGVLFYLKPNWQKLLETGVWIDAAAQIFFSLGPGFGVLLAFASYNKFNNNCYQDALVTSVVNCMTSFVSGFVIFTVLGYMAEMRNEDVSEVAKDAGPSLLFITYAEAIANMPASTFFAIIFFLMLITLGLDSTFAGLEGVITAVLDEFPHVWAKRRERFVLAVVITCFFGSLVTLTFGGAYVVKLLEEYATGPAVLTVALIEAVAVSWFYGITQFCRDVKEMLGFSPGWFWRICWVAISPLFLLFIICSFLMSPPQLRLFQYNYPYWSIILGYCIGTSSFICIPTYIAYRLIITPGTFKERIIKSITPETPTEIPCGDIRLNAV
Description: (§1) HeLa cells were cultured in Dulbecco’s Modified Eagle’s Medium supplemented with 10% fetal bovine serum, 100 units/mL penicillin, and 100 μg/mL streptomycin at 37 °C in a humidified 5% CO2 incubator. Cells grown at ~70% confluence in a 6 cm culture dish were transfected with hSERT cDNA in pcDNA3.1 by lipofectamine 2000. Transfected cells were incubated for 12 h at 37 °C with 5% CO2 and then transferred into 96-well plates. After being grown for an additional 12–16 h, the cells were then assayed for APP^+ uptake or ASP^+ binding.
Measurement of transport or ligand binding activity of SERT was performed by using its fluorescent substrate (APP^+) or ligand (ASP^+), respectively. The cells transiently expressing WT or mutants of hSERT were applied for various treatments. Briefly, the cells were washed twice with 100 μL KRH buffer containing 20 mM HEPES (Neofroxx, Einhausen, Germany), pH 7.4, 120 mM NaCl, 1.3 mM KCl, 2.2 mM CaCl2, 1.2 mM MgSO4, and 0.1% (w/v) glucose. APP^+ uptake was measured by adding 100 μL KRH buffer containing 2 μM APP^+ and incubating for 5 min at 22 °C. Excess APP^+ was then removed by 3× rapid washing with 100 μL KRH buffer each time. The extent of APP^+ accumulated in the cells was determined by fluorescence spectrometry with an Infinite 200 Pro microplate reader (Tecan, Männedorf, Switzerland). […]

hSERT E493N = target: T2, hSERT E493N (Homo sapiens, UniProt P31645, E493N); experiment: APP^+ uptake, hSERT E493N; assay type: cell-based; conditions: S2 site mutant, read-out: SYR IC50 for Transport
T2 construct: forward and reverse primers were used to amplify a full-length hSERT; expressed in transfected cells; host or cells: HeLa cells, transient, pcDNA3.1
T2 sequence (P31645 whole entry E493N): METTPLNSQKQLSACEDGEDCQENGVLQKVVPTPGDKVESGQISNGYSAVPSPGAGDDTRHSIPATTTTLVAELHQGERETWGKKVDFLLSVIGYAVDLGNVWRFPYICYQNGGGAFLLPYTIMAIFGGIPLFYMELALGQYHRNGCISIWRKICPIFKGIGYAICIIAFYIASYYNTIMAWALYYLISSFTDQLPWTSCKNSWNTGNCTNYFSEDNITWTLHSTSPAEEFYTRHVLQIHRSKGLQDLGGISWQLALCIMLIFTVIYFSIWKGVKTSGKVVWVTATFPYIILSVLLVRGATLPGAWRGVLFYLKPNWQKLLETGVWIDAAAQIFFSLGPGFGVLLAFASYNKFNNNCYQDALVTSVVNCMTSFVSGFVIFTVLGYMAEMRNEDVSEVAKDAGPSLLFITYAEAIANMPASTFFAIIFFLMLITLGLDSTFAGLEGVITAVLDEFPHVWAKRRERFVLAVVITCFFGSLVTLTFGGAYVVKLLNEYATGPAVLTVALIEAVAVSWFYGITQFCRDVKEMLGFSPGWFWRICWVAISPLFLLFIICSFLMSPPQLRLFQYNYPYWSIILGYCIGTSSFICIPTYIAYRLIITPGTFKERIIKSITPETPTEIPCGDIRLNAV

hSERT WT = target: T3, hSERT WT (Homo sapiens, UniProt P31645); experiment: ASP^+ binding, hSERT WT; conditions: digitonin-permeabilized cells, read-out: SYR IC50 for Binding
T3 construct: forward and reverse primers were used to amplify a full-length hSERT; expressed in transfected cells; host or cells: HeLa cells (CCL-2), transient, pcDNA3.1
T3 sequence (P31645 whole entry): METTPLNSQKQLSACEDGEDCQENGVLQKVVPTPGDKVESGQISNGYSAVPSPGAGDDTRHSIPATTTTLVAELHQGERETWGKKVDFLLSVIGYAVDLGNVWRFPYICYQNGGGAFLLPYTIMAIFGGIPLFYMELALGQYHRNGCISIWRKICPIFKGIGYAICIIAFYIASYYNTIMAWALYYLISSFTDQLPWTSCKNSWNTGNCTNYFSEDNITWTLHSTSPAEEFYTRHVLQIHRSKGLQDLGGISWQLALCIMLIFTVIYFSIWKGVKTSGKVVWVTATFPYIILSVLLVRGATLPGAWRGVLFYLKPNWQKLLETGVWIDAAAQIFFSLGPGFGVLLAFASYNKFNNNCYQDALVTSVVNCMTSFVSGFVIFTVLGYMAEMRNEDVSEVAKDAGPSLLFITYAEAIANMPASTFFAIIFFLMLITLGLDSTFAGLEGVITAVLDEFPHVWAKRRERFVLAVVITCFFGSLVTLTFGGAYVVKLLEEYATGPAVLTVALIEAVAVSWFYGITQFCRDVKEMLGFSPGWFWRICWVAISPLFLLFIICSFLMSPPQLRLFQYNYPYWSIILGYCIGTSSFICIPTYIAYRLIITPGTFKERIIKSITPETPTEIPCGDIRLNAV

[1] = test system: hSERT S1 mutants (Y95F, I172F, S438T); experiment: ASP^+ binding, S1 site mutants compared with WT; parameters: species or system human; conditions: Tyr95 to Phe, Ile172 to Phe, Ser438 to Thr
Description: as §1
ASP^+ binding to SERT expressed on the cell surface was measured with digitonin-permeabilized cells as described previously. The cells expressing WT or mutants of hSERT were incubated with 10 μM ASP^+ in the presence of 25 μg/mL digitonin at 22 °C for 5 min. After removing excess ASP^+ by 3× rapid washing, ASP^+ fluorescence retained in the cell membrane was determined by fluorescence spectrometry.
hSERT mutants were generated using the Mut Express II Fast Mutagenesis kit (Vazyme, Nanjing, China). Briefly, forward and reverse primers were used to amplify a full-length hSERT. The PCR products were then digested with restriction enzymes, excised from agarose gels, and ligated into pcDNA3.1. All mutations were confirmed by full-length DNA sequencing.

hSERT Q562N = target: T4, hSERT Q562N (Homo sapiens, UniProt P31645, Q562N); experiment: ASP^+ binding, hSERT Q562N; conditions: S2 site mutant, read-out: SYR IC50 for Binding
T4 construct: forward and reverse primers were used to amplify a full-length hSERT; expressed in transfected cells; host or cells: HeLa
T4 sequence (P31645 whole entry Q562N): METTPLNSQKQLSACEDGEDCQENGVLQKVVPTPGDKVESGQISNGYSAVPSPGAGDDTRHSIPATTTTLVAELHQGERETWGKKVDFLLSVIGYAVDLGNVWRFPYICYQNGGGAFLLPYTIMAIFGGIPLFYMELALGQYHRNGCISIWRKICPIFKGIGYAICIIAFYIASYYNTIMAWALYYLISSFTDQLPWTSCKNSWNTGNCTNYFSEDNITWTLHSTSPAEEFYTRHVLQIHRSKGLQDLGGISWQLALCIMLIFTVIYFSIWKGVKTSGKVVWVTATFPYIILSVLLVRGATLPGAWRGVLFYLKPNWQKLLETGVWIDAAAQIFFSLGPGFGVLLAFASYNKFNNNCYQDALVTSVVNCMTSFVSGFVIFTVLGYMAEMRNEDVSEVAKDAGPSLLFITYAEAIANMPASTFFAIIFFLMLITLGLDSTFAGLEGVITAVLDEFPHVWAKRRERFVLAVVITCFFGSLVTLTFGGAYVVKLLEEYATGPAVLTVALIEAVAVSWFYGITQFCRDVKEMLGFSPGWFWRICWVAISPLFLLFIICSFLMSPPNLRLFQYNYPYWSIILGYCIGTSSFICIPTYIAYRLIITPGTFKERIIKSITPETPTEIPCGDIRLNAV

hSERT R564A = target: T5, hSERT R564A (Homo sapiens, UniProt P31645, R564A); experiment: ASP^+ binding, hSERT R564A; conditions: S2 site mutant, read-out: SYR IC50 for Binding
T5 construct: forward and reverse primers were used to amplify a full-length hSERT; expressed in transfected cells; host or cells: HeLa
T5 sequence (P31645 whole entry R564A): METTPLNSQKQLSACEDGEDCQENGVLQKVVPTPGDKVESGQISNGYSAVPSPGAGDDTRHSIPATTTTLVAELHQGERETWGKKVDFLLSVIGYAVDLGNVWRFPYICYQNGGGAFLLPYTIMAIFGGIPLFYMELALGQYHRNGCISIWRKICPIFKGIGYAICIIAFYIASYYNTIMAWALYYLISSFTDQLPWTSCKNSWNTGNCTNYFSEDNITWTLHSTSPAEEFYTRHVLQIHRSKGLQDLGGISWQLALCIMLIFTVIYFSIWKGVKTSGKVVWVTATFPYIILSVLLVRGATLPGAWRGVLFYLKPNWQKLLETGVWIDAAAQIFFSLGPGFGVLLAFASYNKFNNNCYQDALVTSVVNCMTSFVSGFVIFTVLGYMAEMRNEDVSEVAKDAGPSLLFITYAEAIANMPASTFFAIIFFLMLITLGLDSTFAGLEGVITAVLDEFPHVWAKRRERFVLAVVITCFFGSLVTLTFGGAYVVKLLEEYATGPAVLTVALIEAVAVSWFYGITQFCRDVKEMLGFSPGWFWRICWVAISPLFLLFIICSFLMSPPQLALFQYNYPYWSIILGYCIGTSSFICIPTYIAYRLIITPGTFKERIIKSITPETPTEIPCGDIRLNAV

hSERT P560G = target: T6, hSERT P560G (Homo sapiens, UniProt P31645, P560G); experiment: APP^+ uptake, hSERT P560G; assay type: cell-based; conditions: S2 site mutant, read-out: SYR IC50 for Transport
T6 construct: forward and reverse primers were used to amplify a full-length hSERT; expressed in transfected cells; host or cells: HeLa cells, transient, pcDNA3.1
T6 sequence (P31645 whole entry P560G): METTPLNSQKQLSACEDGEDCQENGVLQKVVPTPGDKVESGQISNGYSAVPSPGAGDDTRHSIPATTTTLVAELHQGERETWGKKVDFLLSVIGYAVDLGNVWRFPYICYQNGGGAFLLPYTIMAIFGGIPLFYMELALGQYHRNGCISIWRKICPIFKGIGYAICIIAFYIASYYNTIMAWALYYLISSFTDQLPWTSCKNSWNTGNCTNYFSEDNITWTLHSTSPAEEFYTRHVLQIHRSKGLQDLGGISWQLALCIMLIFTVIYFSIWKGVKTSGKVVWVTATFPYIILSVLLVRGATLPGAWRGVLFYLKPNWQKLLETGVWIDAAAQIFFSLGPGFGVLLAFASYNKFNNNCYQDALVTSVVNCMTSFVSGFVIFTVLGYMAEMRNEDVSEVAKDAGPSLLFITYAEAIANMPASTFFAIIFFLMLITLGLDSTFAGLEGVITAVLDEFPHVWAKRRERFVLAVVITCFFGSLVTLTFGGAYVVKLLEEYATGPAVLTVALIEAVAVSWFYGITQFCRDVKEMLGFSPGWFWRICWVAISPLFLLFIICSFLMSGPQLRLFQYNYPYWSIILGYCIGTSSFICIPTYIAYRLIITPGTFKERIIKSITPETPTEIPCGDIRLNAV

hSERT D328A = target: T7, hSERT D328A (Homo sapiens, UniProt P31645, D328A); experiment: APP^+ uptake, hSERT D328A; assay type: cell-based; conditions: S2 site mutant, read-out: SYR IC50 for Transport
T7 construct: forward and reverse primers were used to amplify a full-length hSERT; expressed in transfected cells; host or cells: HeLa cells, transient, pcDNA3.1
T7 sequence (P31645 whole entry D328A): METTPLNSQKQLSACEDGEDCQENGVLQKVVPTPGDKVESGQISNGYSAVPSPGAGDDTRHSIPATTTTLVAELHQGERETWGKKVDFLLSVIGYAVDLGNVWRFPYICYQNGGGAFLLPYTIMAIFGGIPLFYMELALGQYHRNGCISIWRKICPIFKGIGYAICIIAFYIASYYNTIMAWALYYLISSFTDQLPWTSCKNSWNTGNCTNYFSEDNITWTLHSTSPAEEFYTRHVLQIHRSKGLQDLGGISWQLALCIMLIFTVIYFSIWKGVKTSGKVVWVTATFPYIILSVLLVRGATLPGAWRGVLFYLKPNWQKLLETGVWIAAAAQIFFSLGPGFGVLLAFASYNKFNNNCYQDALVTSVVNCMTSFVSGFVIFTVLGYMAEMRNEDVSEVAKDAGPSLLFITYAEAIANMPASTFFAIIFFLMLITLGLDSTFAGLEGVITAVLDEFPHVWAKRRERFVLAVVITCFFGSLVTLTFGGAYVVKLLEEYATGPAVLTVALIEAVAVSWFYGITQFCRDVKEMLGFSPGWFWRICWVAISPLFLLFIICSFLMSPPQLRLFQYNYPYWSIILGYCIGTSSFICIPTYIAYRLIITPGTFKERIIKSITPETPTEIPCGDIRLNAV

c-Fos = c-Fos immunohistochemistry in hippocampus of CUMS mice; assay type: in vivo, mouse; conditions: same dosage as fluoxetine (10 mg/kg i.p.)
From the text: Figure 8 SYR effects on the expression of c-Fos and synaptic proteins in the hippocampus. (A) Representative immunohistochemical images of c-Fos expression in the hippocampus with the indicated treatments. (B) Quantitative analysis for hippocampal c-Fos expression with various treatments. Protein expression level is expressed as a percentage of c-Fos fluorescence measured in the control group. Bars represent the mean ± SEM (n = 4). ** p < 0.01 compared with the control or CUMS group by one-way ANOVA followed by post hoc tests. (C) Representative immunoblots of the synaptic proteins BDNF, PSD-95, GluA1, and vGluT1 with various treatments. (D–G) Quantification of the expression of synaptic proteins BDNF (D), PSD-95 (E), GluA1 (F), and vGluT1 (G). The expression level is expressed as a percentage of the integrated density obtained from the control group. Bars represent the mean ± SEM (n = 4). * p < 0.05, ** p < 0.01 by one-way ANOVA followed by post hoc tests.
Mouse mPFC and hippocampal slices were prepared as previously described. Briefly, mice were deeply anesthetized with 4% pentobarbital sodium (Sigma-Aldrich, Saint Louis, MI, USA), and perfused transcardially with PBS, followed by 4% phosphate-buffered paraformaldehyde. […]

hSERT = hSERT (Homo sapiens, UniProt P31645); conditions: 22 °C
Sequence of hSERT (P31645 whole entry): as the sequence (P31645 whole entry) above

## COc1cc([C@@H]2OC[C@@H]3[C@H]2CO[C@H]3c2cc(OC)c(O)c(OC)c2)cc(OC)c1O [SYR, (-)-syringaresinol]
SERT Y107C/C109A
  rate constant of MTSET reactivity with Y107C/C109A: markedly increased
hSERT I172F
  IC50: 2220 ± 40 nM
hSERT E493N
  IC50: 9.16 ± 0.34 µM
hSERT WT
  IC50: 960 ± 20 nM
[1]
  effect of S1 site mutations on SYR inhibition of ASP^+ binding: little effect
hSERT Q562N
  IC50: 99.9 ± 2.04 µM
hSERT R564A
  IC50: 30.4 ± 1.42 µM
hSERT P560G
  IC50: 5.99 ± 0.96 µM
hSERT D328A
  IC50: 19.6 ± 1.21 µM
c-Fos
  CUMS-induced decrease in expression of c-Fos in the hippocampus: effectively alleviate
hSERT; 10 μM + 10 μM 5-HT
  effect on 5-HT-induced APP^+ efflux: effectively blocked
hSERT; 10 μM, cells preloaded with APP^+
  effect on basal APP^+ efflux: not by SYR
